Measured values: paper PMC8429728, “TNK1 is a ubiquitin-binding and 14-3-3-regulated kinase that can be targeted to block tumor growth” (Nature Communications, 2021)
Where two headings read alike, the source gives them in different places.

Columns and labels:
Test in all cases: biochemical
Set-up in all cases: Reaction Biology 371-kinase panel at Km ATP, per cent enzyme activity relative to DMSO, single dose in duplicate
Settings in all cases: duplicate measurements, Km ATP
[1] = target: T1, ACK1 (Homo sapiens, UniProt Q07912)
T1 construct: gene TNK2
Experimental: (§1) To assess kinase selectivity, we screened TP-5801 (300 nM) against a panel of 371 kinases in vitro. […] In addition to TNK1, only 7 other kinases were inhibited by more than 90% (Supplementary Fig. 8 and Supplementary Data 2). […] The resulting % Enzyme activity (relative to DMSO controls) were plotted in GraphPad and IC50 values were determined by sigmoidal dose-response (variable slope) curve fits, with a bottom constraint of 0.

[2] = target: AXL (Homo sapiens, UniProt P30530)
AXL, sequence (P30530 whole entry): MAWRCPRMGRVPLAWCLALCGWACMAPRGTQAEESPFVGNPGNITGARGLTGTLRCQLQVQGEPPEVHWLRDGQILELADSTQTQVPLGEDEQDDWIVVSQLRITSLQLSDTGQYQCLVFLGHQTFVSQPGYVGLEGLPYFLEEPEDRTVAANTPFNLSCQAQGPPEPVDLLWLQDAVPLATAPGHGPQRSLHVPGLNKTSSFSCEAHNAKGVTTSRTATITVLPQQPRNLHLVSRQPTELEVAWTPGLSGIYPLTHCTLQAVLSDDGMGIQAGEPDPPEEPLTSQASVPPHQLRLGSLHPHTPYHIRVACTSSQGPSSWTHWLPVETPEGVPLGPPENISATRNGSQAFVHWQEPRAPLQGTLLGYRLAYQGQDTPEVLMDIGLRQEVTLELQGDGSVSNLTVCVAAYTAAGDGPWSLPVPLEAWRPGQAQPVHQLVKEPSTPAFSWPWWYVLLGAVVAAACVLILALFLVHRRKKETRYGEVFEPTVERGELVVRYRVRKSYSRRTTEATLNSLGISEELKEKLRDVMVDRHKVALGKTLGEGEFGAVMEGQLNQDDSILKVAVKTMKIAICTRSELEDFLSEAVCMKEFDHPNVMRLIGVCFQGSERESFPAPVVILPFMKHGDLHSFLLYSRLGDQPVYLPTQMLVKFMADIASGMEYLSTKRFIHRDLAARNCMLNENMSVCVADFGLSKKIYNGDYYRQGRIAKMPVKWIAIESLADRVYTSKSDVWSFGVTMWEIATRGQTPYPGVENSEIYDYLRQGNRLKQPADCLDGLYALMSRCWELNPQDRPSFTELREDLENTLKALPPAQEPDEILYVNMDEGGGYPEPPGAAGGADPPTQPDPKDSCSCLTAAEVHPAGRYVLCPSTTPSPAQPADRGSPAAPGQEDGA
Experimental: as §1

[3] = target: BRAF (Homo sapiens, UniProt P15056)
Experimental: as §1

[4] = target: CAMK2d (Homo sapiens, UniProt Q13557)
Experimental: as §1

[5] = target: CDC7/DBF4 (Homo sapiens, UniProt O00311)
Experimental: as §1

[6] = target: CLK3 (Homo sapiens, UniProt P49761)
CLK3, sequence (P49761 whole entry): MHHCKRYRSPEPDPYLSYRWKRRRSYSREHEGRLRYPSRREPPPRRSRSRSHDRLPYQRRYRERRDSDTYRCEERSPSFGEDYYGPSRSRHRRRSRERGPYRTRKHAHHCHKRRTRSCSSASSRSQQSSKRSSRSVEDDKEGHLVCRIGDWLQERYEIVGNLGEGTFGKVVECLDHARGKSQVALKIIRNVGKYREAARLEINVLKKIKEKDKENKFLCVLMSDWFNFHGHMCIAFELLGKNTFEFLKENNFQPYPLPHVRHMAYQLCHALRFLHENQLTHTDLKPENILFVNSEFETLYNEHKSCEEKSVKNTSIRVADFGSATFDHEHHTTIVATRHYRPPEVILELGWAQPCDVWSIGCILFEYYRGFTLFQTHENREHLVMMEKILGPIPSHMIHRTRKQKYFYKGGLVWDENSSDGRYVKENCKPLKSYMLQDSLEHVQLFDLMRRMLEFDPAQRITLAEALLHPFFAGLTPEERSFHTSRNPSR
Experimental: as §1

[7] = target: T2, DCAMKL1 (Homo sapiens, UniProt O15075)
T2 construct: gene DCLK1
Experimental: as §1

[8] = target: T3, ERK1 (Homo sapiens, UniProt P27361)
T3 construct: gene MAPK3
Experimental: as §1

[9] = target: ERK2/MAPK1 (Homo sapiens, UniProt P28482)
ERK2/MAPK1, sequence (P28482 whole entry): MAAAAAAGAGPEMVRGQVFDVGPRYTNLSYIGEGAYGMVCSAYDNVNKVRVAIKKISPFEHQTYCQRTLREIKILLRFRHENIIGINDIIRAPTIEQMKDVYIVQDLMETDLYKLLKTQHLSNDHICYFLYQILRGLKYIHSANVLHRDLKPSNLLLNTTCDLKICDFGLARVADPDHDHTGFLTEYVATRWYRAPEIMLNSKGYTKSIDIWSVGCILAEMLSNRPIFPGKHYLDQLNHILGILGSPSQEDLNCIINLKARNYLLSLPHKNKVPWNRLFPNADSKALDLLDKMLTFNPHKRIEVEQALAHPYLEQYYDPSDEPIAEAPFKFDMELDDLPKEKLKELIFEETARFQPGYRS
Experimental: as §1

[10] = target: HCK (Homo sapiens, UniProt P08631)
Experimental: as §1

[11] = target: HIPK3 (Homo sapiens, UniProt Q9H422)
Experimental: as §1

[12] = target: IGF1R (Homo sapiens, UniProt P08069)
Experimental: as §1

[13] = target: MINK/MINK1 (Homo sapiens, UniProt Q8N4C8)
MINK/MINK1, sequence (Q8N4C8 whole entry): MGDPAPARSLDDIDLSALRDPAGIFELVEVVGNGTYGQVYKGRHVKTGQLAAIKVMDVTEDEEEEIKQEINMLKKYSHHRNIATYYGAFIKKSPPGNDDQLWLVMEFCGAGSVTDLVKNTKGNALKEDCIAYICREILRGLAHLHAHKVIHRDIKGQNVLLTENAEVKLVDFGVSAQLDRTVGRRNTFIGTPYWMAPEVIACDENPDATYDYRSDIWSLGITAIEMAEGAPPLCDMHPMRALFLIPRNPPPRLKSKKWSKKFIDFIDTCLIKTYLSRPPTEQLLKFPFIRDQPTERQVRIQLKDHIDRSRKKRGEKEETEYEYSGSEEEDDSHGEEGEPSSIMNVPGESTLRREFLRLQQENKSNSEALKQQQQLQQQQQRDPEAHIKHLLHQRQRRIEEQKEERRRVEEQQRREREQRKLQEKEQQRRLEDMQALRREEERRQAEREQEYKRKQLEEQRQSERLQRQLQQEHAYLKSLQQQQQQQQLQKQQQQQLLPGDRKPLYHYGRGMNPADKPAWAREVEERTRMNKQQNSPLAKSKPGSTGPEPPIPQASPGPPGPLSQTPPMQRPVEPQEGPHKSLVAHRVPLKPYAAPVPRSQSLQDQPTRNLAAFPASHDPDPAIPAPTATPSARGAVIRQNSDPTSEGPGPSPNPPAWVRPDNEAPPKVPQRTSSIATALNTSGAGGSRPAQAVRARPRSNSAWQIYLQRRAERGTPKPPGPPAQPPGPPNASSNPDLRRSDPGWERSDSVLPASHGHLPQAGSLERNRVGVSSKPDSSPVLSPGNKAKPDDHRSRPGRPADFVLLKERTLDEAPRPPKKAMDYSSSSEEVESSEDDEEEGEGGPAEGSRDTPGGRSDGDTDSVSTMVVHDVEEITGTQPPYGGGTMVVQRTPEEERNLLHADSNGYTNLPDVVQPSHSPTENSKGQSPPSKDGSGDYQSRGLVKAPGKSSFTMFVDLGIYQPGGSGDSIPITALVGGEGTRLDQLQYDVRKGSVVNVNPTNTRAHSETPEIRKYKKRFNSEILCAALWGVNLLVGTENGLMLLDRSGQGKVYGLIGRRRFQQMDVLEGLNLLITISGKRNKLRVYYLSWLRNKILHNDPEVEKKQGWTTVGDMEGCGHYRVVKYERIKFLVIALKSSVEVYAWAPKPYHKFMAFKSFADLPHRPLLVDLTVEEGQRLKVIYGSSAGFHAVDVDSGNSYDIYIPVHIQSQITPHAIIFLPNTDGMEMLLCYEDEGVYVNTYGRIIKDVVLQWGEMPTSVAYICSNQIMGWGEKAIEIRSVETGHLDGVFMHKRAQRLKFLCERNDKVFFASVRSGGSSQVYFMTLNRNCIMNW
Experimental: as §1

[14] = target: T4, MKK4 (Homo sapiens, UniProt P45985)
T4 construct: gene MAP2K4
Experimental: as §1

[15] = target: T5, MKK7 (Homo sapiens, UniProt O14733)
T5 construct: gene MAP2K7
T5 sequence (O14733 whole entry): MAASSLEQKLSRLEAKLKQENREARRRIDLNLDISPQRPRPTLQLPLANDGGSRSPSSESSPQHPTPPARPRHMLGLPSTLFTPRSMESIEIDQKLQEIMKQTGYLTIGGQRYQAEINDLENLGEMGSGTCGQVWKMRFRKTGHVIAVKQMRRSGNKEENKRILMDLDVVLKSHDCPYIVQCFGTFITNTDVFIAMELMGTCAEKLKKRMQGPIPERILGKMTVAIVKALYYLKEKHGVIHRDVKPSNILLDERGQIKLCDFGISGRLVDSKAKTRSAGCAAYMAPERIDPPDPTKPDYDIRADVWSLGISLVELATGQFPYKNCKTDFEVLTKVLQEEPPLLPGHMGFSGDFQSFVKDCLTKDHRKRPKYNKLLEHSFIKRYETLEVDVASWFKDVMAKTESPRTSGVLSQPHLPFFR
Experimental: as §1

[16] = target: PKD2/PRKD2 (Homo sapiens, UniProt Q9BZL6)
Experimental: as §1

[17] = target: SSTK/TSSK6 (Homo sapiens, UniProt Q9BXA6)
SSTK/TSSK6, sequence (Q9BXA6 whole entry): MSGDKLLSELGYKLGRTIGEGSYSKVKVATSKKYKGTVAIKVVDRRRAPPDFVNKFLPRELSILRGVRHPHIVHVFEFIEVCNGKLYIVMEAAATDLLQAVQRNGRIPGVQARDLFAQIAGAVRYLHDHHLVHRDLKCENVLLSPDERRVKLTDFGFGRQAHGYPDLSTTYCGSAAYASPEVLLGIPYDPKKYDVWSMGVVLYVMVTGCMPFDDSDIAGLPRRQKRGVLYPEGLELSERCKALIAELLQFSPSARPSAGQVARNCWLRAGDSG
Experimental: as §1

[18] = target: TGFBR2 (Homo sapiens, UniProt P37173)
TGFBR2, sequence (P37173 whole entry): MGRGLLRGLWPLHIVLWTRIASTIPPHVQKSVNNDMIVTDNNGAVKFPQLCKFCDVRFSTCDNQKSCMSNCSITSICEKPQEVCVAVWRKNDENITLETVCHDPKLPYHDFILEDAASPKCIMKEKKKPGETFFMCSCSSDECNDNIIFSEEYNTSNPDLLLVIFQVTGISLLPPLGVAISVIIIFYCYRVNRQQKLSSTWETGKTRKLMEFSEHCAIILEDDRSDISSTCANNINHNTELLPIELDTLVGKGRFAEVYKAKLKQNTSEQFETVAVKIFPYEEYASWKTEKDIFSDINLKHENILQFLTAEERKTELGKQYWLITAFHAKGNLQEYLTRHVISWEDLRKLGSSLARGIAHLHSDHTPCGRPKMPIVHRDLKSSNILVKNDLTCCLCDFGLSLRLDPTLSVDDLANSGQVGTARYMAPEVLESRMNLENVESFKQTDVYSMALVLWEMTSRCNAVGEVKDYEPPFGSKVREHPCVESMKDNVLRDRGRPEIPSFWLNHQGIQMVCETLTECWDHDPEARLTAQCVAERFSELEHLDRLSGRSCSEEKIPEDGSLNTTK
Experimental: as §1

[19] = target: TTBK2 (Homo sapiens, UniProt Q6IQ55)
Experimental: as §1

[20] = target: VRK1 (Homo sapiens, UniProt Q99986)
VRK1, sequence (Q99986 whole entry): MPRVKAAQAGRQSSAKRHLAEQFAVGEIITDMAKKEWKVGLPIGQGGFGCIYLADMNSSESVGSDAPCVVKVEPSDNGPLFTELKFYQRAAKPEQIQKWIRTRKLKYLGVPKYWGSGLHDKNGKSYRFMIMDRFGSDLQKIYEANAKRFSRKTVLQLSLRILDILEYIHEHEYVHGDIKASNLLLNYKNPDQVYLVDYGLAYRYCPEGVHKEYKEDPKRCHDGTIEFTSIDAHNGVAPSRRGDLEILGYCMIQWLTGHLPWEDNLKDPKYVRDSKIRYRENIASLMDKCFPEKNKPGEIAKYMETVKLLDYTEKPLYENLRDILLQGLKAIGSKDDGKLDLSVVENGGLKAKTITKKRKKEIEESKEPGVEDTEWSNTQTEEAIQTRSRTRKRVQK
Experimental: as §1

[21] = read-out: % Enzyme Activity (relative to DMSO controls) / TP-0005801 (0.3µM) / Data 1
[22] = read-out: % Enzyme Activity (relative to DMSO controls) / TP-0005801 (0.3µM) / Data 2

remaining activity at 0.3 µM [1, 21]: 1.69% | remaining activity at 0.3 µM [1, 22]: 1.45% | remaining activity at 0.3 µM [2, 21]: 89.2% | remaining activity at 0.3 µM [2, 22]: 86.3% | remaining activity at 0.3 µM [3, 21]: 87.3% | remaining activity at 0.3 µM [3, 22]: 85.1% | remaining activity at 0.3 µM [4, 21]: 4.74% | remaining activity at 0.3 µM [4, 22]: 4.45% | remaining activity at 0.3 µM [5, 21]: 124% | remaining activity at 0.3 µM [5, 22]: 123% | remaining activity at 0.3 µM [6, 21]: 79.1% | remaining activity at 0.3 µM [6, 22]: 77.3% | remaining activity at 0.3 µM [7, 21]: 94.9% | remaining activity at 0.3 µM [7, 22]: 93.4% | remaining activity at 0.3 µM [8, 21]: 108% | remaining activity at 0.3 µM [8, 22]: 107% | remaining activity at 0.3 µM [9, 21]: 87.1% | remaining activity at 0.3 µM [9, 22]: 86.1% | remaining activity at 0.3 µM [10, 21]: 105% | remaining activity at 0.3 µM [10, 22]: 102% | remaining activity at 0.3 µM [11, 21]: 91.9% | remaining activity at 0.3 µM [11, 22]: 85.6% | remaining activity at 0.3 µM [12, 21]: 16.7% | remaining activity at 0.3 µM [12, 22]: 16.2% | remaining activity at 0.3 µM [13, 21]: 95.6% | remaining activity at 0.3 µM [13, 22]: 89.2% | remaining activity at 0.3 µM [14, 21]: 78.8% | remaining activity at 0.3 µM [14, 22]: 76% | remaining activity at 0.3 µM [15, 21]: 103% | remaining activity at 0.3 µM [15, 22]: 102% | remaining activity at 0.3 µM [16, 21]: 66.5% | remaining activity at 0.3 µM [16, 22]: 64.3% | remaining activity at 0.3 µM [17, 21]: 111% | remaining activity at 0.3 µM [17, 22]: 107% | remaining activity at 0.3 µM [18, 21]: 99.3% | remaining activity at 0.3 µM [18, 22]: 97.8% | remaining activity at 0.3 µM [19, 21]: 90.3% | remaining activity at 0.3 µM [19, 22]: 83.1% | remaining activity at 0.3 µM [20, 21]: 92.2% | remaining activity at 0.3 µM [20, 22]: 91.6%
Compound: COc1cc(N2CCN(C)CC2)c(C)cc1Nc1ncc(Br)c(Nc2cccnc2N(C)C)n1 [TP-5801]
